Experiments:
[1] = biological target: T1, MPO (Homo sapiens, UniProt P05164); experiment: MALDI-TOF analysis of heme and heme/compound conjugate in presence of H2O2; format: binding; design: purchased Cayman Chemical 700170
T1 sequence (P05164 49-745): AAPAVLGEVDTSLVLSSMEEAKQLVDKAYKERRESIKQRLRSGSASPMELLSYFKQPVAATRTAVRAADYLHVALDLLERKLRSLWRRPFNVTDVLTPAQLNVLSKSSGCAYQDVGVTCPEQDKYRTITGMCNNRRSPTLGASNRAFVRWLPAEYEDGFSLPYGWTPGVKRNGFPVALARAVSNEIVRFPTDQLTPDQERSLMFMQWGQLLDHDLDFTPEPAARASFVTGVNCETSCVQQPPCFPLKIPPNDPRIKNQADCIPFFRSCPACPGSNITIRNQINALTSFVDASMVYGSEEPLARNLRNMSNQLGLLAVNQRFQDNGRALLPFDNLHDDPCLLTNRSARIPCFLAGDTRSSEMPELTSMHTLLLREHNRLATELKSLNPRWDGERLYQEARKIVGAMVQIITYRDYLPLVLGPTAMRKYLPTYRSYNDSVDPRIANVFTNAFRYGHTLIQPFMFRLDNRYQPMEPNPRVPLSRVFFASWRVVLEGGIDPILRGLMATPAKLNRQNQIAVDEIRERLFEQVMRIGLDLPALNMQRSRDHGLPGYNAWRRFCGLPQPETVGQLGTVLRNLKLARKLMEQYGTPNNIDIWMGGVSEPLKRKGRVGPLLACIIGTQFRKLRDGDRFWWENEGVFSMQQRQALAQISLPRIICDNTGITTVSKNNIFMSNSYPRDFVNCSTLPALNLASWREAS
Experimental: (§1) Only MPO (red) and H2O2 promoted a shift in the Soret peak, formation of a new band at 630 nm (blue).
To determine the binding motif/active site of MPO and the compound of interest, a computational docking analysis using a 2.5 A crystal structure (PDB id 3ZSO) was performed. The heme ‘m’ in myeloperoxidase contains two ester bonds at the heme 1 and 5-methyls. In addition, a unique sulfonium ion linkage was observed. […] An inhibitory action of the myeloperoxidase is predicted when such covalent links are formed. Especially docking position of 184B unique and have visible effect on the Hisitidine 336 coordinated iron (FIG. 6E). These docking results explain the observed effects of 184B on the soret peak (˜433). Further MALDI-TOF analysis of heme (un conjugated) and heme/184B conjugated (in presence of H2O2) complexes are liberated from protein and analyzed ions with an ˜m/z>1040, which would be the mass of conjugated heme and 184B compare to unconjugated control only heme (m/z˜694) (FIG. 6F).

[2] = biological target: T1, MPO; experiment: UV/visible heme absorption spectra of MPO with compound/H2O2; format: binding; design: purchased Cayman Chemical 700170
Experimental: as §1
It was next set about to investigate the molecular target of the analogs (FIG. 6A). Cultured HL60 cells were treated with either Biotin/Biotin-INVMG1 (securinine) (10 μM) for 2 hr and pull-down experiments using streptavidin magnetic beads were used to pulldown bound molecules, followed by SDS-PAGE analysis (FIG. 6B). […] This 80 kDa protein band was excised, digested with trypsin, and the tryptic digests then analyzed using Mass Spectroscopy. […] The proteins bound to streptavidin beads were next separated using SDS-PAGE and incubated then with anti-human MPO antibody. […] To further confirm the binding of INVMG1 to MPO, the MPO enzyme was incubated with and without INVMG184B/H2O2, and analyzed absorption maxima using UV/visible.

[3] = biological target: T2, thyroid peroxidase (Homo sapiens, UniProt P07202); experiment: Oxidation of ascorbate by thyroid peroxidase and iodide (iodination activity); format: biochemical; conditions: 10 μM, iodide
T2 sequence (P07202 19-933): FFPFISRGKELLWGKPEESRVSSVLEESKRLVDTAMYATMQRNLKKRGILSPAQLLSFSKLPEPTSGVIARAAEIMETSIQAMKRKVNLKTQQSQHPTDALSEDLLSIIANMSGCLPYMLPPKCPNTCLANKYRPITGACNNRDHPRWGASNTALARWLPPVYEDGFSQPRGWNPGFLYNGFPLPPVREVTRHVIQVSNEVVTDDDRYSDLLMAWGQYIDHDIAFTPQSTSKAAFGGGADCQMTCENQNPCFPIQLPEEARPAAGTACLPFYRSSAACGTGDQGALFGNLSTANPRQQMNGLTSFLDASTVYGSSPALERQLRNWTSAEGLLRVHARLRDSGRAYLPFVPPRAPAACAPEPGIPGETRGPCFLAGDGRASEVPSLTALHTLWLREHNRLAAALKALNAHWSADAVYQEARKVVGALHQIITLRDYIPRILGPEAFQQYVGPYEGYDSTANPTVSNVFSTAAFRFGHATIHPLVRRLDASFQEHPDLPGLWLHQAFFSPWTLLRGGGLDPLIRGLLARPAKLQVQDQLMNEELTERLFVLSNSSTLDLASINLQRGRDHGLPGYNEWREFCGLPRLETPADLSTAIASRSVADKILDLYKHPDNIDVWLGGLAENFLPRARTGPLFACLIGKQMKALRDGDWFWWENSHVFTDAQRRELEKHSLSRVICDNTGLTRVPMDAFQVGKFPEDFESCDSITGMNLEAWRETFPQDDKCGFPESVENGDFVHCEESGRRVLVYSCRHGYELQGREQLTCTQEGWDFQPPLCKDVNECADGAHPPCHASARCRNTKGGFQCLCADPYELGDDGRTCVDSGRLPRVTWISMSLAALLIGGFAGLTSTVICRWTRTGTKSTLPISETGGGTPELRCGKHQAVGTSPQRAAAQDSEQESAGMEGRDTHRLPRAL
Description: (§2) All Results are representative of duplicate experiments
(§3) To determine whether these analogues are selective for MPO, rather than being a general peroxidase inhibitor, thyroid peroxidase and lactoperoxidase were selected for oxidase evaluation. The effect of MA20 on the halogenation activities of MPO and thyroid peroxidase were compared by following the oxidation of ascorbate in the presence of chloride or iodide.

[4] = system: mouse embryonic fibroblast (MEF); format: cell-based
Description: (§4) The securinine analog MPO inhibitors have favorable in vitro and in vivo toxicity profiles.

[5] = system: HEK293; format: cell-based
Description: as §4

[6] = system: Skin fibroblast (BJ1); format: cell-based
Description: as §4

[7] = biological target: T1, MPO; experiment: Oxidation of ascorbate by MPO, H2O2 and chloride; format: biochemical; design: purchased Cayman Chemical 700170; conditions: 1.0 μM, chloride
Description: as §2, §3

[8] = system: human neutrophils; experiment: HOCl production by PMA-stimulated human neutrophils; format: cell-based; conditions: 0.5 μM MA20, PMA 110 ng/ml 30 min
Experimental: as §2
The reaction was stopped by 251 μg/ml of catalase and 0.5 μM of MA20, and chlorination activity was measured. […] This effect is strikingly similar to MA20's inhibitory effect on purified MPO (FIG. 7C). […] As such, they prevent the production of HOCl without concomitant release of free radicals.

[9] = biological target: T1, MPO; experiment: Residual chlorination activity of MPO after incubation with or without H2O2, 150 fold dilution; format: biochemical; design: purchased Cayman Chemical 700170; conditions: FIG. 7E
Experimental: as §2
(§5) To determine the mechanism of this inhibition, the MPO enzyme was incubated with MA20 in the presence or absence of H2O2 for a set time and determined the reduction in chlorination activity of the enzyme. Residual activity was measured by diluting the reaction mixture by 150 fold. Incubation with either MA20 or H2O2 had minimal MPO inhibitory activity (approximately a 25-30% reduction in chlorination activity, FIG. 7E).

[10] = in vitro; format: in vitro ADME; conditions: human, microsomes
Description: as §4

[11] = biological target: T1, MPO; experiment: Chlorination assay with purified MPO (HOCl formation, APF fluorescence); format: biochemical; design: purchased Cayman Chemical 700170
Experimental: as §2
MPO's catalyzed enzymatic reaction consists of multiple stages (FIG. 3). Chlorination occurs when Complex-I produces hypochlorous acid (HOCl) in the presence of a chloride ion. […] Analogue MA20:
as §5

## O=C1C=C2CC(S(=O)(=O)c3ccccc3)[C@@H]3C[C@@]2(O1)[C@H]1CCCCN31 (some centres unmarked) [INVS-MG-184B]
[1]
  nature of interaction with MPO (heme conjugate): irreversible

## O=C1C=C2C(S(=O)(=O)c3ccccc3)C[C@@H]3C[C@@]2(O1)C1CCCCN13 (some centres unmarked) [MA20]
[2]
  binding with the heme prosthetic group (Soret ~433 nm, peak ~630 nm): direct binding
[3]
  effect on the iodination activity of thyroid peroxidase: negligible
[4]
  toxicity (cell survival): significantly lower level of toxicity
[5]
  toxicity (cell survival): significantly lower level of toxicity
[6]
  toxicity (cell survival): significantly lower level of toxicity
[7]
  oxidation of ascorbate by MPO: completely blocked
[8]
  PMA-induced HOCl production by neutrophils: significantly inhibited
[9]; MA20 and H2O2
  MPO activity after addition of compound and H2O2: completely inhibited
[9]; incubation with MA20 alone, without H2O2
  reduction in chlorination activity: 25-30%
[10]
  half-life: ~1.33 h
[11]; FIG. 7B-C
  MPO inhibition activity assessed by chlorination activity: highest MPO inhibition activity
[11]; FIG. 7D
  inhibition potency (chlorination) versus chloride ion concentration: decreased with increasing concentrations of the chloride ion
[11]; preliminary data
  mechanism of MPO inhibition: suicidal substrate

— patent US10149838B2, “Small molecule securinine and norsecurinine analogs and their use in inhibiting myeloperoxidase” (MiRx Pharmaceuticals, LLC, priority 2013, dated 2018)
